Experimental findings from article PMC12102759 (Protein Science : A Publication of the Protein Society, 2025) are described below.

The assay concerns PABPC1 PABC. The assay is classed as binding, human. The conditions noted are these: DMS-BM library, bait PABPC1 PABC, row aa = residue at this position; for DMS-derived PSSM value (averaged), position P11 / DMS-derived PSSM value (averaged), position P4 / DMS-derived PSSM value, position P11: P = wild type; for DMS-derived PSSM value, position F16 / DMS-derived PSSM value (averaged), position F9 / DMS-derived PSSM value, position F11 / DMS-derived PSSM value, position F14 / DMS-derived PSSM value, position F9: F = wild type; for DMS-derived PSSM value (averaged), position K7: K = wild type.

[1] abbreviates: prey ATXN2, TLNPNAKEFNPRSF(averaged) over the two overlapping peptides.
Where [2] appears, read: prey ATXN2, peptide TLNPNAKEFNPRSFSQ, A = wild type.
The mark [3] stands for this setting: prey ATXN2, TLNPNAKEFNPRSF(averaged) over the two overlapping peptides, N = wild type.
Where [4] appears, read: prey ATXN2, peptide KSTLNPNAKEFNPRSF
The mark [5] stands for this setting: prey ATXN2, peptide KSTLNPNAKEFNPRSF, E = wild type.
[6] abbreviates: prey ATXN2, peptide KSTLNPNAKEFNPRSF, N = wild type.
[7] abbreviates: prey ATXN2, peptide TLNPNAKEFNPRSFSQ, S = wild type.
Where [8] appears, read: prey ATXN2, peptide TLNPNAKEFNPRSFSQ
[9] abbreviates: prey ATXN2, peptide TLNPNAKEFNPRSFSQ, N = wild type.
Where [10] appears, read: prey ATXN2, peptide TLNPNAKEFNPRSFSQ, L = wild type.
The mark [11] stands for this setting: prey ATXN2, TLNPNAKEFNPRSF(averaged) over the two overlapping peptides, A = wild type.
Where [12] appears, read: prey ATXN2, peptide KSTLNPNAKEFNPRSF, S = wild type.

Read-outs that look alike come from different tables or passages of the source.

Turning to “TLNPNAKEFNPRSF(averaged) P11G (TLNPNAKEFNGRSF)”, under setting [1], the “DMS-derived PSSM value (averaged), position P11” value stood at 0.05139.

As for TLNPNAKEFNPRSFSQ A6D (TLNPNDKEFNPRSFSQ), under setting [2], the “DMS-derived PSSM value, position A6” value is 0.

Consider “TLNPNAKEFNPRSF(averaged) N10S (TLNPNAKEFSPRSF)”, for which the “DMS-derived PSSM value (averaged), position N10” value under setting [3] worked out at 0.02002.

Turning to “KSTLNPNAKEFNPRSF F16D (KSTLNPNAKEFNPRSD)”, under setting [4], the “DMS-derived PSSM value, position F16” value is recorded as 0.02019.

For the substance “TLNPNAKEFNPRSF(averaged) F9S (TLNPNAKESNPRSF)”, the “DMS-derived PSSM value (averaged), position F9” value under setting [1] turned out to be 0.

In the case of “KSTLNPNAKEFNPRSF E10T (KSTLNPNAKTFNPRSF)”, the “DMS-derived PSSM value, position E10” value under setting [5] is on record as 0.1693.

As for “KSTLNPNAKEFNPRSF E10V (KSTLNPNAKVFNPRSF)”, the “DMS-derived PSSM value, position E10” value under setting [5] was found to be 0.1837.

For the substance “TLNPNAKEFNPRSF(averaged) K7E (TLNPNAEEFNPRSF)”, the “DMS-derived PSSM value (averaged), position K7” value under setting [1] amounted to 0.01581.

Regarding “TLNPNAKEFNPRSF(averaged) N5M (TLNPMAKEFNPRSF)”, the “DMS-derived PSSM value (averaged), position N5” value under setting [3] is recorded as 0.3686.

Take TLNPNAKEFNPRSFSQ A6N (TLNPNNKEFNPRSFSQ): the “DMS-derived PSSM value, position A6” value under setting [2] is 0.

Take KSTLNPNAKEFNPRSF N7V (KSTLNPVAKEFNPRSF): under setting [6], the “DMS-derived PSSM value, position N7” value worked out at 0.01745.

Take “KSTLNPNAKEFNPRSF F16V (KSTLNPNAKEFNPRSV)”: the “DMS-derived PSSM value, position F16” value under setting [4] was 0.175.

“KSTLNPNAKEFNPRSF F11W (KSTLNPNAKEWNPRSF)”: the “DMS-derived PSSM value, position F11” value under setting [4] is reported as 0.203.

For the substance KSTLNPNAKEFNPRSF A8N (KSTLNPNNKEFNPRSF), the “DMS-derived PSSM value, position A8” value (prey ATXN2, peptide KSTLNPNAKEFNPRSF, A = wild type) was found to be 0.

As to KSTLNPNAKEFNPRSF T3N (KSNLNPNAKEFNPRSF), the “DMS-derived PSSM value, position T3” value (prey ATXN2, peptide KSTLNPNAKEFNPRSF, T = wild type) is reported as 0.01165.

For “TLNPNAKEFNPRSF(averaged) K7L (TLNPNALEFNPRSF)”, the “DMS-derived PSSM value (averaged), position K7” value under setting [1] amounted to 0.03789.

“TLNPNAKEFNPRSF(averaged) N5P (TLNPPAKEFNPRSF)”: under setting [3], the “DMS-derived PSSM value (averaged), position N5” value is given as 4.119e-5.

In the case of “KSTLNPNAKEFNPRSF R14Y (KSTLNPNAKEFNPYSF)”, the “DMS-derived PSSM value, position R14” value (prey ATXN2, peptide KSTLNPNAKEFNPRSF, R = wild type) is recorded as 0.04467.

With “TLNPNAKEFNPRSFSQ S15R (TLNPNAKEFNPRSFRQ)”, under setting [7], the “DMS-derived PSSM value, position S15” value is recorded as 0.01068.

For the substance “KSTLNPNAKEFNPRSF F11E (KSTLNPNAKEENPRSF)”, the “DMS-derived PSSM value, position F11” value under setting [4] stood at 0.

For “TLNPNAKEFNPRSFSQ F14G (TLNPNAKEFNPRSGSQ)”, under setting [8], the “DMS-derived PSSM value, position F14” value is given as 0.005512.

In the case of TLNPNAKEFNPRSFSQ N3H (TLHPNAKEFNPRSFSQ), the “DMS-derived PSSM value, position N3” value under setting [9] was found to be 0.

Regarding “TLNPNAKEFNPRSF(averaged) T1L (LLNPNAKEFNPRSF)”, for the setting “prey ATXN2, TLNPNAKEFNPRSF(averaged) over the two overlapping peptides, T = wild type”, the “DMS-derived PSSM value (averaged), position T1” value amounted to 0.06577.

In the case of TLNPNAKEFNPRSFSQ F9Y (TLNPNAKEYNPRSFSQ), the “DMS-derived PSSM value, position F9” value under setting [8] was determined as 0.02013.

On to “TLNPNAKEFNPRSFSQ F14R (TLNPNAKEFNPRSRSQ)”, for which the “DMS-derived PSSM value, position F14” value under setting [8] was found to be 0.0002828.

Take “TLNPNAKEFNPRSFSQ N10M (TLNPNAKEFMPRSFSQ)”: under setting [9], the “DMS-derived PSSM value, position N10” value came to 0.1.

For the substance “KSTLNPNAKEFNPRSF N12V (KSTLNPNAKEFVPRSF)”, under setting [6], the “DMS-derived PSSM value, position N12” value worked out at 0.2093.

As for “TLNPNAKEFNPRSF(averaged) L2T (TTNPNAKEFNPRSF)”, the “DMS-derived PSSM value (averaged), position L2” value (prey ATXN2, TLNPNAKEFNPRSF(averaged) over the two overlapping peptides, L = wild type) stood at 0.

For KSTLNPNAKEFNPRSF N5K (KSTLKPNAKEFNPRSF), the “DMS-derived PSSM value, position N5” value under setting [6] was 0.

With KSTLNPNAKEFNPRSF L4A (KSTANPNAKEFNPRSF), the “DMS-derived PSSM value, position L4” value (prey ATXN2, peptide KSTLNPNAKEFNPRSF, L = wild type) turned out to be 0.

On to TLNPNAKEFNPRSFSQ T1N (NLNPNAKEFNPRSFSQ), for which the “DMS-derived PSSM value, position T1” value (prey ATXN2, peptide TLNPNAKEFNPRSFSQ, T = wild type) was determined as 0.02571.

Consider “TLNPNAKEFNPRSF(averaged) N3P (TLPPNAKEFNPRSF)”, for which the “DMS-derived PSSM value (averaged), position N3” value under setting [3] is 0.

Regarding “TLNPNAKEFNPRSF(averaged) K7S (TLNPNASEFNPRSF)”, the “DMS-derived PSSM value (averaged), position K7” value under setting [1] turned out to be 0.03571.

“TLNPNAKEFNPRSF(averaged) K7I (TLNPNAIEFNPRSF)”: the “DMS-derived PSSM value (averaged), position K7” value under setting [1] is 0.2038.

For TLNPNAKEFNPRSFSQ A6T (TLNPNTKEFNPRSFSQ), the “DMS-derived PSSM value, position A6” value under setting [2] amounted to 0.2659.

Consider “TLNPNAKEFNPRSFSQ N10S (TLNPNAKEFSPRSFSQ)”, for which the “DMS-derived PSSM value, position N10” value under setting [9] is reported as 0.03126.

Take TLNPNAKEFNPRSFSQ N5T (TLNPTAKEFNPRSFSQ): the “DMS-derived PSSM value, position N5” value under setting [9] was determined as 0.0193.

For the substance TLNPNAKEFNPRSFSQ F9I (TLNPNAKEINPRSFSQ), the “DMS-derived PSSM value, position F9” value under setting [8] is on record as 0.

For the substance TLNPNAKEFNPRSFSQ L2S (TSNPNAKEFNPRSFSQ), under setting [10], the “DMS-derived PSSM value, position L2” value was found to be 0.

As for “TLNPNAKEFNPRSF(averaged) P11T (TLNPNAKEFNTRSF)”, under setting [1], the “DMS-derived PSSM value (averaged), position P11” value came to 0.141.

Consider “TLNPNAKEFNPRSF(averaged) P4W (TLNWNAKEFNPRSF)”, for which the “DMS-derived PSSM value (averaged), position P4” value under setting [1] came to 0.

Turning to “TLNPNAKEFNPRSF(averaged) P4K (TLNKNAKEFNPRSF)”, the “DMS-derived PSSM value (averaged), position P4” value under setting [1] turned out to be 0.

In the case of “TLNPNAKEFNPRSF(averaged) F9R (TLNPNAKERNPRSF)”, the “DMS-derived PSSM value (averaged), position F9” value under setting [1] worked out at 0.

Regarding “KSTLNPNAKEFNPRSF F11N (KSTLNPNAKENNPRSF)”, the “DMS-derived PSSM value, position F11” value under setting [4] worked out at 0.09626.

For TLNPNAKEFNPRSFSQ E8F (TLNPNAKFFNPRSFSQ), the “DMS-derived PSSM value, position E8” value (prey ATXN2, peptide TLNPNAKEFNPRSFSQ, E = wild type) worked out at 0.

As for “TLNPNAKEFNPRSF(averaged) N10L (TLNPNAKEFLPRSF)”, under setting [3], the “DMS-derived PSSM value (averaged), position N10” value was found to be 0.09868.

On to TLNPNAKEFNPRSFSQ L2P (TPNPNAKEFNPRSFSQ), for which the “DMS-derived PSSM value, position L2” value under setting [10] came to 0.03756.

Consider “TLNPNAKEFNPRSF(averaged) P4I (TLNINAKEFNPRSF)”, for which, under setting [1], the “DMS-derived PSSM value (averaged), position P4” value is given as 0.2825.

“TLNPNAKEFNPRSFSQ P11E (TLNPNAKEFNERSFSQ)”: the “DMS-derived PSSM value, position P11” value under setting [8] stood at 0.0006031.

With “TLNPNAKEFNPRSF(averaged) N3M (TLMPNAKEFNPRSF)”, the “DMS-derived PSSM value (averaged), position N3” value under setting [3] is 0.

As to TLNPNAKEFNPRSFSQ N5F (TLNPFAKEFNPRSFSQ), the “DMS-derived PSSM value, position N5” value under setting [9] was found to be 0.006389.

Regarding “TLNPNAKEFNPRSF(averaged) A6L (TLNPNLKEFNPRSF)”, the “DMS-derived PSSM value (averaged), position A6” value under setting [11] amounted to 0.

With TLNPNAKEFNPRSFSQ N5G (TLNPGAKEFNPRSFSQ), the “DMS-derived PSSM value, position N5” value under setting [9] was 0.01384.

Regarding “KSTLNPNAKEFNPRSF F11D (KSTLNPNAKEDNPRSF)”, the “DMS-derived PSSM value, position F11” value under setting [4] was 0.

For the substance KSTLNPNAKEFNPRSF S2Y (KYTLNPNAKEFNPRSF), under setting [12], the “DMS-derived PSSM value, position S2” value turned out to be 0.2105.

Regarding “TLNPNAKEFNPRSFSQ S13P (TLNPNAKEFNPRPFSQ)”, the “DMS-derived PSSM value, position S13” value under setting [7] is recorded as 0.0852.

Consider TLNPNAKEFNPRSFSQ F9Q (TLNPNAKEQNPRSFSQ), for which the “DMS-derived PSSM value, position F9” value under setting [8] is on record as 0.

On to “TLNPNAKEFNPRSFSQ N10W (TLNPNAKEFWPRSFSQ)”, for which the “DMS-derived PSSM value, position N10” value under setting [9] is 0.06015.

Regarding “TLNPNAKEFNPRSF(averaged) A6F (TLNPNFKEFNPRSF)”, under setting [11], the “DMS-derived PSSM value (averaged), position A6” value is given as 0.

For “TLNPNAKEFNPRSFSQ P11K (TLNPNAKEFNKRSFSQ)”, under setting [8], the “DMS-derived PSSM value, position P11” value is 0.

KSTLNPNAKEFNPRSF N7R (KSTLNPRAKEFNPRSF): the “DMS-derived PSSM value, position N7” value under setting [6] was determined as 0.005056.

For “KSTLNPNAKEFNPRSF S15P (KSTLNPNAKEFNPRPF)”, under setting [12], the “DMS-derived PSSM value, position S15” value came out at 0.04178.
